How the values were obtained:
[1] = molecular target: T1, human oestrogenic receptor alpha (ER-α) (Homo sapiens, UniProt P03372); assay: competitive receptor binding assay, displacement of radioactively labelled oestradiol, ER-α; conditions: for relative potency [formula] (ratio ER-α to ER-β): head is a formula, values fit relative potency ER-α / ER-β
T1 sequence (P03372 1-595): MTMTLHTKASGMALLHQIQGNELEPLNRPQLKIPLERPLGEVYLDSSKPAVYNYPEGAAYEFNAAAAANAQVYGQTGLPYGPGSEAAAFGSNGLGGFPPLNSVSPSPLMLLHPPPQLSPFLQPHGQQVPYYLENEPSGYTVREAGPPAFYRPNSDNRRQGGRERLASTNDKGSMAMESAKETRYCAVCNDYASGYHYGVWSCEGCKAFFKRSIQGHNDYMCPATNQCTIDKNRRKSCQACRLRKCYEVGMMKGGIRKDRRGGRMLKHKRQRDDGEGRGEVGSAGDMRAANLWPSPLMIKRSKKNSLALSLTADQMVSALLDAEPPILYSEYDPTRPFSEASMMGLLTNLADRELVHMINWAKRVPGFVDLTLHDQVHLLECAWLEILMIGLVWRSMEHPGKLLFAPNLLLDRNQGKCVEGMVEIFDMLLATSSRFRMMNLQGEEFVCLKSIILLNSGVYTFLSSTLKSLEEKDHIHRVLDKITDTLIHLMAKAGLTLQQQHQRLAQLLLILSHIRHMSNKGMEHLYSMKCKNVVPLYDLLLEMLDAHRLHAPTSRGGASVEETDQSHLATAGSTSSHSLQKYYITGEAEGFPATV
Procedure: Thereby, a radioactively labelled oestradiol was initially bonded to the human oestrogen receptor and then treated with the test substance to be examined. A portion of the labelled oestradiol which corresponds to the oestrogenic potency of the sample is thus displaced. Excessive oestradiol is washed out after bonding of the complex to hydroxylapatite. The oestrogenic receptors ER-α and ER-β were commercially available as recombinant human receptors. The test preparations consisted of 1000 μl TEDG buffer (10 mM tris, 1,5 mM EDTA, 10% glycerol, pH 7.5), 5 μl receptor (200 nM), 10 μl 3H-oestradiol and 10 μl ethanol (control value), 10 μl diethylstiloestrol (100 mM, positive control) or 10 μl extract or ingredient of the extract, respectively. The preparations were carefully mixed and incubated for about 16 hours at room temperature in the dark. After incubation 250 μl hydroxylapatite (HAP) were added to absorb the proteins. During a period of incubation of 15 minutes the preparations were manually mixed with a time-lag of 5 minutes, respectively. The precipitate is separated by centrifugation at 10,000 rpm for a few seconds and the supernatant liquid is separated by pipetting. The pellet is washed three times with 1000 μl TEDG buffer, respectively, 1000 μl ethanol are added for the measurement, the mixture is slurried and transferred to a scintillation vial. After adding 9 ml scintillator liquid (Ready Safe, Beckmann) a measurement over the complete ^3H window is carried out using a Beckmann Beta-Counter.
The characterisation of the bonding capacities of the test substances results from the determination of the ED50 values taken from the dosis-effect-plots of the displacement of oestradiol.

[2] = molecular target: T2, human oestrogenic receptor (Homo sapiens, UniProt P03372); conditions: Milligan et al.; cited from earlier work
T2 construct: host or cells: yeast cells
T2 sequence (P03372 1-595): T1 sequence (P03372 1-595)

Ishikawa-Var-I-cells = conditions: cited from earlier work
ovariectomised rats = conditions: Miyamoto et al. 1998; cited from earlier work
[3] = test system: human breast cancer cells MCF-7; conditions: Miranda et al. 1999; cited from earlier work
[4] = test system: colon cancer cell lines HAT-29; conditions: Miranda et al. 1999; cited from earlier work
[5] = test system: ovarian cancer cell lines A-2780; conditions: Miranda et al. 1999; cited from earlier work
osteolysis = conditions: EP 0 679 393 B1; cited from earlier work

| SMILES | relative potency [formula] (ratio ER-α to ER-β) [1] | oestrogenic activity, human oestrogenic receptor in yeast [2] | antiproliferative activity [3] | antiproliferative activity [4] | interaction with ER-α, in words [1] | antiproliferative activity [5] | other results |
| --- | --- | --- | --- | --- | --- | --- | --- |
| CC(C)=CCc1c(O)cc2c(c1O)C(=O)C[C@@H](c1ccc(O)cc1)O2 | 0.37 | weaker oestrogenic properties | – | – | – | – | – |
| CC(C)=CCc1c(O)cc(O)c2c1O[C@H](c1ccc(O)cc1)CC2=O | 2.72 | most powerful oestrogenic activity | – | – | – | – | oestrogenic activity in vitro, stimulating alkaline phosphatase (Ishikawa-Var-I-cells; Ishikawa-Var-I-cells, Milligan et al. 1999): significantly more active than the phytooestrogenes known so far; osseous density (ovariectomised rats): normalises; weight of the uterus (ovariectomised rats): normalises |
| CC(C)=CCc1c(O)c(CC=C(C)C)c2c(c1O)C(=O)C[C@@H](c1ccc(O)cc1)O2 [6,8-diprenylnaringenine] | – | weaker oestrogenic properties | – | – | – | – | – |
| CC(C)=CCC/C(C)=C/Cc1c(O)cc(O)c2c1O[C@H](c1ccc(O)cc1)CC2=O [8-geranylnaringenine] | – | weaker oestrogenic properties | – | – | – | – | – |
| COc1cc(O)c(CC=C(C)C)c2c1C(=O)CC(c1ccc(O)cc1)O2 (stereo not shown) [Isoxanthohumol, isoxanthohumol] | 0.54 | – | strong antiproliferative activity | strong antiproliferative activity | comparable activity | strong antiproliferative activity | – |
| COc1cc(O)c(CC=C(C)C)c(O)c1C(=O)/C=C/c1ccc(O)cc1 [Xanthohumol] | 0.78 | could not be detected | strong antiproliferative activity | strong antiproliferative activity | comparable activity | strong antiproliferative activity | effect on osteolysis (osteolysis): inhibiting effect; oestrogenic activity in human endometrial carcinoma cell line Ishikawa (Ishikawa-Var-I-cells; Milligan et al.): could not be detected |

From patent publication US20050042318A1, “Extracts from hop, methods for producing the same and their use” (priority 2001, published 2005)
